Results reported in ChEMBL document CHEMBL3774310, “Discovery of antitumor anthra[2,3-b]furan-3-carboxamides: Optimization of synthesis and evaluation of antitumor properties” (Eur J Med Chem, 2016).
Active and inactive are the calls of the source. No cut-off for these calls is given here.

What was measured:
[1] = Antiproliferative activity against human K562/4 cells after 72 hrs by MTT assay; settings: K562/4, 72 h
[2] = Cytotoxicity against hFB-hTERT6 assessed as reduction in cell viability after 72 hrs by MTT assay; settings: Homo sapiens, hFB-hTERT6, 72 h
K562 = test: Binding affinity to P-gp in human K562 cells assessed as drug accumulation at 1 uM incubated for 1 to 24 hrs by flow cytometry; type: cell-based
K562/4 = test: Binding affinity to P-gp in human K562/4 cells assessed as drug accumulation at 1 uM incubated for 1 to 24 hrs by flow cytometry; type: cell-based
[3] = Cell cycle arrest in p53 knockout human HCT116 cells assessed as accumulation in G2/M phase at 1 uM after 24 hrs; type: functional, cell-based; settings: HCT-116
HCT-116 [4] = test: Induction of apoptosis in human HCT116 cells assessed as viable cells at 1 uM after 48 hrs by Annexin V-FITC/propidium iodide staining based assay (reference value: 95 +/- 2%); type: functional
[5] = Cell cycle arrest in human HCT116 cells assessed as accumulation in sub G1 phase at 1 uM after 24 to 48 hrs relative to control; type: functional, cell-based; settings: HCT-116
[6] = Cell cycle arrest in p53 knockout human HCT116 cells assessed as accumulation in sub G1 phase at 1 uM after 24 to 48 hrs relative to control; type: functional, cell-based; settings: HCT-116
[7] = Cell cycle arrest in human HCT116 cells assessed as decrease in G1 phase at 1 uM after 24 hrs; type: functional, cell-based; settings: HCT-116
[8] = Cell cycle arrest in p53 knockout human HCT116 cells assessed as decrease in G1 phase at 1 uM after 24 hrs; type: functional, cell-based; settings: HCT-116
[9] = Cell cycle arrest in human HCT116 cells assessed as decrease in S phase at 1 uM after 24 hrs; type: functional, cell-based; settings: HCT-116
[10] = Cell cycle arrest in p53 knockout human HCT116 cells assessed as decrease in S phase at 1 uM after 24 hrs; type: functional, cell-based; settings: HCT-116
HCT-116 [11] = test: Induction of apoptosis in human HCT116 cells assessed as early apoptotic cells at 1 uM after 48 hrs by Annexin V-FITC/propidium iodide staining based assay (reference value: 2 +/- 1%); type: functional
HCT-116 [12] = test: Induction of apoptosis in human HCT116 cells assessed as late apoptotic cells at 1 uM after 24 hrs by Annexin V-FITC/propidium iodide staining based assay (reference value: 1 +/- 1%); type: functional
HCT-116 [13] = test: Induction of apoptosis in human HCT116 cells assessed as necrotic cells at 1 uM after 24 hrs by Annexin V-FITC/propidium iodide staining based assay (reference value: 2 +/- 1%); type: functional
HCT-116 [14] = test: Induction of apoptosis in human HCT116 cells assessed as necrotic cells at 1 uM after 48 hrs by Annexin V-FITC/propidium iodide staining based assay (reference value: 2 +/- 1%); type: functional
HCT-116 [15] = test: Induction of apoptosis in p53 knockout human HCT116 cells assessed as viable cells at 1 uM after 24 hrs by Annexin V-FITC/propidium iodide staining based assay (reference value: 93 +/- 3%); type: functional
HCT-116 [16] = test: Induction of apoptosis in p53 knockout human HCT116 cells assessed as viable cells at 1 uM after 48 hrs by Annexin V-FITC/propidium iodide staining based assay (reference value: 93 +/- 3%); type: functional
HCT-116 [17] = test: Induction of apoptosis in p53 knockout human HCT116 cells assessed as early apoptotic cells at 1 uM after 24 hrs by Annexin V-FITC/propidium iodide staining based assay (reference value: 2 +/- 1%); type: functional
HCT-116 [18] = test: Induction of apoptosis in p53 knockout human HCT116 cells assessed as early apoptotic cells at 1 uM after 48 hrs by Annexin V-FITC/propidium iodide staining based assay (reference value: 2 +/- 1%); type: functional
HCT-116 [19] = test: Induction of apoptosis in p53 knockout human HCT116 cells assessed as late apoptotic cells at 1 uM after 24 hrs by Annexin V-FITC/propidium iodide staining based assay (reference value: 2 +/- 1%); type: functional
HCT-116 [20] = test: Induction of apoptosis in p53 knockout human HCT116 cells assessed as late apoptotic cells at 1 uM after 48 hrs by Annexin V-FITC/propidium iodide staining based assay (reference value: 2 +/- 1%); type: functional
HCT-116 [21] = test: Induction of apoptosis in p53 knockout human HCT116 cells assessed as necrotic cells at 1 uM after 24 hrs by Annexin V-FITC/propidium iodide staining based assay (reference value: 2 +/- 1%); type: functional
Calf thymus DNA [22] = test: Binding affinity to calf thymus DNA assessed as decrease in extinction of absorption maxima at 5 uM by spectrophotometric analysis; type: nucleic-acid assay; set-up: scale not given: the % may be the effect or the level left; settings: Bos taurus
Calf thymus DNA [23] = test: Binding affinity to calf thymus DNA assessed as bathochromic shift at 5 uM by spectrophotometric analysis; type: nucleic-acid assay; settings: Bos taurus
[24] = target: T1, DNA topoisomerase 1 (Homo sapiens) (UniProt P11387); test: Inhibition of topoisomerase 1 (unknown origin) assessed as attenuation of enzyme-mediated relaxation of supercoiled pBR322 DNA up to 1 uM after 30 mins by agarose gel electrophoresis
T1 sequence (whole entry): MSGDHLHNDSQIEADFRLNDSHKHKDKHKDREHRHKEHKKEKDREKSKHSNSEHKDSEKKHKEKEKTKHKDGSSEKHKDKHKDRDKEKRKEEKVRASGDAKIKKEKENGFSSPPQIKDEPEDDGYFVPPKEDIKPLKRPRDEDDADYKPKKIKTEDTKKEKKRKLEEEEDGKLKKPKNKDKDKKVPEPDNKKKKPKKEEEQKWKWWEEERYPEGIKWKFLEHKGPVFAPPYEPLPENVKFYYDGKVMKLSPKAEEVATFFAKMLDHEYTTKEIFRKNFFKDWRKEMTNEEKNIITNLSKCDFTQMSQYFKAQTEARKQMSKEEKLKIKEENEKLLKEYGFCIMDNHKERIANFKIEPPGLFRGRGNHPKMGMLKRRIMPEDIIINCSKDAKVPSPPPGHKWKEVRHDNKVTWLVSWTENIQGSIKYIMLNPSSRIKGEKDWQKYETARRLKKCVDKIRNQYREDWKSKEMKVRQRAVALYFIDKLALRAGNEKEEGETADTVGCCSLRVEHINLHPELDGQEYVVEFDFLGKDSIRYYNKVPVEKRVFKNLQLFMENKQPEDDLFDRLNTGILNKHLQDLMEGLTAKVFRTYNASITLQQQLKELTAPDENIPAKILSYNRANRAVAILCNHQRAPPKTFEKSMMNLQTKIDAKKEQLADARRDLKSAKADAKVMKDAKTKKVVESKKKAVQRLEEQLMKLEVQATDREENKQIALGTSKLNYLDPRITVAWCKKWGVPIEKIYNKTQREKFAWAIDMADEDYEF

[25] = target: T1, DNA topoisomerase 1 (Homo sapiens); test: Poisoning activity at topoisomerase 1 (unknown origin) using 3'-[32P]dGTP labelled 117bp oligonucleotide assessed as induction of DNA cleavage incubated for 20 mins by SDS-PAGE analysis
P388 = test: Antitumor activity against mouse P388 cells transplanted in DBA2/BDF1 mouse assessed as mean life span at 30 mg/kg, ip dosed daily for 5 days relative to control; type: functional
[26] = Toxicity in ip dosed DBA2/BDF1 mouse transplanted with mouse P388 cells dosed daily for 5 days; type: organism-based; settings: in vivo
[27] = HCT-116, 48 h, read-out: Activity

| SMILES | IC50 [1] [µM] | IC50 [2] [µM] | Activity (K562) | Activity (K562/4) | Activity [3] | Activity [5] [%] | Activity [6] [%] | Activity [7] | Activity [8] | Activity [9] | Activity [10] | Activity (HCT-116 [11]) | Activity (HCT-116 [12]) | Activity (HCT-116 [13]) | Activity (HCT-116 [14]) | Activity (HCT-116 [17]) | Activity (HCT-116 [18]) | Activity (HCT-116 [19]) | Activity (HCT-116 [20]) | Activity (HCT-116 [21]) | other results |
| --- | --- | --- | --- | --- | --- | --- | --- | --- | --- | --- | --- | --- | --- | --- | --- | --- | --- | --- | --- | --- | --- |
| CS(=O)(=O)O.Cc1oc2c(O)c3c(c(O)c2c1C(=O)N1CC[C@@H](N)C1)C(=O)c1ccccc1C3=O | 1.3 | > 50 | inactive | inactive | Active | > 70 | > 70 | Active | Active | Active | Active | Active | Active | Active | Active | Active | Active | Active | Active | Active | Activity (HCT-116 [4]): Active; Activity (HCT-116 [15]): Active; Activity (HCT-116 [16]): Active; Activity (Calf thymus DNA [22]): 36%; Activity (Calf thymus DNA [23]): 9 nm; Activity [24]: inactive; Activity [25]: inactive; Activity (P388): 122%; MTD at 120 h [26]: 50 mg/kg |
| CS(=O)(=O)O.Cc1oc2c(O)c3c(c(O)c2c1C(=O)N1CC[C@H](N)C1)C(=O)c1ccccc1C3=O | 1.4 | > 50 | inactive | inactive | Active | > 70 | > 70 | Active | Active | Active | Active | 45% | 12% | 10% | 30% | 17% | 46% | 12% | 14% | 11% | viability at 1 µM (HCT-116 [4]; [27]): 12%; viability at 1 µM (HCT-116 [15]; HCT-116, 24 h, read-out: Activity): 54%; viability at 1 µM (HCT-116 [16]; [27]): 7%; Activity (Calf thymus DNA [22]): 36%; Activity (Calf thymus DNA [23]): 9 nm; Activity [24]: inactive; Activity [25]: inactive; Activity (P388): 214%; MTD at 120 h [26]: 30 mg/kg |
